According to patent US10098883B2, “(Aza)pyridopyrazolopyrimidinones and indazolopyrimidinones and their use” (BAYER PHARMA AKTIENGESELLSCHAFT, priority 2013, dated 2018):
Counter-ions that a name gives are not always drawn.

system: clot lysis (fibrinolysis) in human citrated plasma, tPA-induced; experiment: Plasma-based clot lysis assay (5%); format: biochemical; conditions: diluted human citrated plasma (platelet-poor, 5%), fibrinogen 3 μM, CaCl2 10 mM, tPA 0.2 nM, 37° C., OD 405 nm
Experimental: B-2. Plasma-based Clot Lysis Assay (5%)
The clot-lysis test system configures the kinetics of clot formation and degradation in vitro and allows quantifying modulation of the process by selected test compounds.
The test compounds were dissolved in 1% acetic acid and further complemented with an equal volume of DMSO. The resulting stock solutions were serially diluted in 0.5% acetic acid/50% DMSO. 1 μL aliquots of these solutions were placed into 384 well microplates (Greiner, black, transparent bottom), followed by 30 μL of diluted human citrated plasma (platelet-poor, final concentration: 5%; supplemented with fibrinogen, final concentration: 3 μM; dilution buffer: 20 mM HEPES, 150 mM NaCl, 0.01% Brij (pH 7)). The reactions were started by addition of […] of CaCl2 (final concentration: 10 mM), and tPA (tissue plasminogen activator, final concentration: 0.2 nM) in dilution buffer, followed by an additional volume of 20 μL dilution buffer for improved mixing. The reactions were incubated at 37° C. Clot formation and degradation was monitored spectrophotometrically by kinetic optical density measurements at 405 nm. IC50 values were determined by comparing the resulting time courses with the time course of a blank control reaction.

IC50 [nM] | Structure (SMILES)
18 | Cc1cccc2nn3c(C4CCNCC4)cc(=O)[nH]c3c12 [Example 36, 10-Methyl-4-(piperidin-4-yl)pyrimido[1,2-b]indazol-2(1H)-one hydrochloride]
44 | O=c1cc(C2CCNCC2)n2nc3cccc(OC(F)(F)F)c3c2[nH]1 [Example 37, 4-(Piperidin-4-yl)-10-(trifluoromethoxy)pyrimido[1,2-b]indazol-2(1H)-one hydrochloride]
60 | O=c1cc(C2CCNCC2)n2nc3nccnc3c2[nH]1 [Example 38, 7-(Piperidin-4-yl)pyrazino[2′,3′:3,4]pyrazolo[1,5-a]pyrimidin-9(10H)-one hydrochloride]
24 | O=c1cc(C2CCNCC2)n2nc3cc(Cl)ccc3c2[nH]1 [Example 39, 8-Chloro-4-(piperidin-4-yl)pyrimido[1,2-b]indazol-2(1H)-one hydrochloride]
38 | CN(C)c1ccnc2nn3c(C4CCNCC4)cc(=O)[nH]c3c12 [Example 40, 10-(Dimethylamino)-4-(piperidin-4-yl)pyrido[2′,3′:3,4]pyrazolo[1,5-a]pyrimidin-2(1H)-one hydrochloride]
23 | O=c1cc(C2CCNCC2)n2nc3cc(C(F)(F)F)cc(Cl)c3c2[nH]1 [Example 41, 10-Chloro-4-(piperidin-4-yl)-8-(trifluoromethyl)pyrimido[1,2-b]indazol-2(1H)-one hydrochloride]
110 | O=c1cc(C2CCNCC2)n2nc3nc(-c4ccc(F)cc4)cc(C(F)(F)F)c3c2[nH]1 [Example 42, 8-(4-Fluorophenyl)-4-(piperidin-4-yl)-10-(trifluoromethyl)pyrido[2′,3′:3,4]pyrazolo[1,5-a]pyrimidin-2(1H)-one hydrochloride]
100 | O=c1cc(C2CCNCC2)n2nc3cncc(Br)c3c2[nH]1 [Example 43, 10-Bromo-4-(piperidin-4-yl)pyrido[3′,4′:3,4]pyrazolo[1,5-a]pyrimidin-2(1H)-one hydrochloride]
48 | O=c1cc(C2CCNCC2)n2nc3nc(-c4ccccc4)ccc3c2[nH]1 [Example 44, 8-Phenyl-4-(piperidin-4-yl)pyrido[2′,3′:3,4]pyrazolo[1,5-a]pyrimidin-2(1H)-one hydrochloride]
37 | O=c1cc(C2CCNCC2)n2nc3ncc(-c4ccccc4)cc3c2[nH]1 [Example 45, 9-Phenyl-4-(piperidin-4-yl)pyrido[2′,3′:3,4]pyrazolo[1,5-a]pyrimidin-2(1H)-one hydrochloride]
17 | O=c1cc(C2CCNCC2)n2nc3nccc(-c4ccccc4)c3c2[nH]1 [Example 46, 10-Phenyl-4-(piperidin-4-yl)pyrido[2′,3′:3,4]pyrazolo[1,5-a]pyrimidin-2(1H)-one hydrochloride]
24 | Cc1ccnc2nn3c(C4CCNCC4)cc(=O)[nH]c3c12 [Example 47, 10-methyl-4-(piperidin-4-yl)pyrido[2′,3′:3,4]pyrazolo[1,5-a]pyrimidin-2(1H)-one hydrochloride]
36 | O=c1cc(C2CCNCC2)n2nc3ccc(I)cc3c2[nH]1 [Example 48, 9-Iodo-4-(piperidin-4-yl)pyrimido[1,2-b]indazol-2(1H)-one hydrochloride]
36 | O=c1cc(C2CCNCC2)n2nc3ccncc3c2[nH]1 [Example 49, 4-(Piperidin-4-yl)pyrido[4′,3′:3,4]pyrazolo[1,5-a]pyrimidin-2(1H)-one]
14 | C[C@H]1C[C@H](c2cc(=O)[nH]c3c4c(Br)cccc4nn23)CCN1 [Example 50, (−)-trans-10-Bromo-4-(2-methylpiperidin-4-yl)pyrimido[1,2-b]indazol-2(1H)-one hydrochloride]

same assay, conditions: diluted human citrated plasma (platelet-poor, 5%), fibrinogen 3 μM, CaCl2 10 mM, tPA 0.2 nM, 37° C., OD 405 nm; trifluoroacetate

IC50 [nM] | Structure (SMILES)
21 | N#Cc1cccc2nn3c(C4CCNCC4)cc(=O)[nH]c3c12 [Example 33, 2-Oxo-4-(piperidin-4-yl)-1,2-dihydropyrimido[1,2-b]indazole-10-carbonitrile trifluoroacetate]
